According to patent US20260041694A1, “Udonitrectag For Topical Use In The Treatment Of Dermatological Diseases” (MIMETECH S.R.L., priority 2022, published 2026):

What was measured:
[1] = system: human keratinocytes (HACAT cell line); assay: In vitro wound healing model, scratched keratinocyte monolayer; type: cell-based; settings: 50 μM MT8, compared to control medium
Experimental: To evaluate whether MT8 is able to induce faster healing of injured human keratinocytes (HACAT cell line) monolayers, an in vitro “wound healing” model was used. HACAT cells were seeded in 6-well culture dishes and grown to 90%-95% confluency. A standardized wound was created by scratching the HACAT cell monolayer with a sterile micropipette tip under an inverted microscope. Then, the cells were washed with PBS and treated with 50 μM MT8 or 4 nM NGF, and images of the wound healing process were recorded at different time points.

male C57BL/6 mice = assay: In vivo model of androgenetic alopecia (DHT-injected mice); settings: Udonitrectag 100 μM in PBS, topical twice a day for 2 weeks; vs vehicle
Experimental: Udonitrectag was studied in an in vivo model of androgenetic alopecia.
For this purpose, male C57BL/6 mice were shaved with an animal clipper at 8 weeks of age, when all follicles are in the telogen phase. After depilation, 4 mg of DHT (dissolved in 100 μL of ethanol) were injected subcutaneously into the back of each animal. The mice were then divided into two groups: vehicle-treated and treated with Udonitrectag 100 μM in PBS. Udonitrectag 100 μM solution, or vehicle (PBS only) were applied topically twice a day for 2 weeks and hair growth was recorded at the beginning and at the end of treatment.

skin lesions / wounds = assay: Topical treatment of skin lesions and wounds in patients (Examples 19-29); type: in vivo, human; settings: topical application
Text: Inoperable antibiotic multi-resistance. […] The jagged edges of the lesion are erythematous and infected. The periwound skin is erythematous and edematous, with erythema extending to the malleolar area. The lesion is lightly exuding, with foul-smelling, serous exudate. Contaminated/infected wound. When changing the dressing, the pain expressed is equal to 8 (VAS pain scale); there is still discomfort and sometimes pain even when the dressing is not changed. Complex wound due to comorbidities. • Treatment with Udonitrectag: Wound cleaning performed with sterile saline solution (0.9% sodium chloride) and Microdacyn, followed by Urgotul and finally 1% Udonitrectag gel-cream, covered with a light dressing; 2 dressing changes per week for a total of 5 dressings with 1% Udonitrectag gel-cream.

[2] = system: Human Umbilical Vein Endothelial Cells (HUVECs); assay: In vitro AGE-induced endothelial dysfunction, ATP content by CellTiter Glo; type: cell-based; settings: 20 µM MT8; HUVECs on ECM-AGE-coated plates, 4 days
Experimental: BSA-AGE and ECM-AGE were produced by Maillard reaction and Amadori rearrangement and used to evaluate oxidative stress and apoptosis process induced by AGEs in endothelial cell cultures.
To evaluate whether MT8 is able to counteract AGE-induced endothelial cell dysfunction, Human Umbilical Vein Endothelial Cells (HUVECs) were seeded on ECM-AGE-coated plates and incubated with complete growth medium, in the presence or absence of 20 µM MT8, or 2 nM NGF+2 nM BDNF for 4 days. The cells were then lysed with 100 µL of CellTiter Glo, which allows for ATP release from the cells. The ATP content (directly proportional to cell viability) was measured by luciferase assay.

[3] = system: psoriasis lesions on the calves of both legs; assay: Treatment of psoriasis in a patient; type: in vivo, human; settings: one patient
Text: A patient diagnosed with psoriasis having lesions on the calves of both legs underwent the following treatment:
• FAGRON: galenic preparation (0.05% clobetasol propionate, 10% urea in occluvan q.s. to 100%)

Question: With “(1S,4R,5R,7S)-3,4-dibenzyl-2-oxo-6,8-dioxa-3-azabicyclo[3.2.1]octane-7-carboxylic acid lysine salt [Udonitrectag]” as the substance, how does the “wound repair process (wound distances as a function of time)” value [1] read?
Answer: induces a faster repair process

Question: What about the hair regrowth (male C57BL/6 mice) of the same substance?
Answer: induces hair regrowth much faster and more intensively than vehicle treatment

Question: What about the “healing of skin lesions incurable with other treatments (FIGS. 6-16)” value (skin lesions / wounds) of the same substance?
Answer: healing of severe skin lesions

Question: What about the “endothelial cell viability (ATP content)” value [2] of the same substance?
Answer: able to maintain endothelial cell viability

Question: What about the “psoriasis status at skin examination two years after the end of the treatment” value ([3]; left and right leg, both legs last treated with Udonitrectag 0.5% gel-cream) of the same substance?
Answer: completely healed

Question: What about the “improvement of psoriatic lesions during treatment” value ([3]; topical, Udonitrectag as 0.5% gel-cream, regimen per leg over days 1-30) of the same substance?
Answer: produced visible improvements in the lesions
